In patent EP4563571A1, “PRMT5 INHIBITORS” (Beijing Earthwise Technology Co., Ltd., priority 2022, dated 2024):
Like-named read-outs stand apart in the source and are kept apart here.

Key:
Assay type in all cases: cell-based
[1] = system: HCT116^MTAP Deletion cells; test: Anti-proliferation assay on cells (Cell-Titer Glo, 10 days)
In short: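 HCT116^MTAP Deletion cells seeded at 50 cells/well and exposed to 10-point 3-fold compound dilutions in duplicate (0.1% DMSO) for 10 days at 37 °C. Viability read by CellTiter-Glo luminescence; IC50 derived from GI50 curves of concentration versus inhibition.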

[2] = system: HCT116 cells; test: as above; conditions: for Selectivity multiple of HCT116^MTAP WT GI50/ HCT116^MTAP Deletion GI50: ratio of GI50 values
Description: Assay example 1: Method of anti-proliferation assay on cells
HCT116^MTAP Deletion cells were from Pharmaron (China); HCT116 cells were from ATCC; McCoy's 5A medium was purchased from Invitrogen (USA); penicillin-streptomycin and fetal bovine serum were purchased from Gibco (USA); a 384-well plate was purchased from PerkinElmer (USA); and Cell-Titer Glo reagent was purchased from Promega (USA).
Compound dissolution: All the compounds were dissolved in dimethyl sulfoxide (DMSO) and then stored. The compounds were stored at room temperature in a dry condition for 3 months for short term storage or at -20 °C for long term storage.
Cell culture and passaging
(§1) The cells were cultured strictly in accordance with ATCC requirements. The cell culture medium (McCoy's 5A medium + 10% fetal bovine serum + 1% penicillin + streptomycin) was transferred to a 15 mL centrifuge tube and centrifuged at 1000 rpm for 5 min. The supernatant was removed. The cells were resuspended with complete culture medium, inoculated into a culture dish at the required density, and cultured in an incubator at 37 °C, 95% humid air, and 5% carbon dioxide. The culture medium was replenished or the cells were passaged every 2-3 days depending on the cell growth condition.
Cell proliferation activity assay
When the confluency of cells in the culture dish reached about 90%, the cells were washed twice with PBS, and then treated with trypsin to become single cells. The cells were counted, and 40µl of the cells was inoculated into each well of a 384-well plate (50 cells/well). The plate was equilibrated at 37 °C and 5% carbon dioxide for 10 to 15 minutes. The compounds were injected into the 384-well plate using Echo550, and positive control and negative control (0.1% DMSO) were set up. Each compound was subjected to a 3-fold dilution, resulting in 10 concentration gradients, in duplicate, and the content of DMSO was 0.1%. The 384-well plate was incubated in a cell culture incubator for 10 days.
Then, 40 µl of cell proliferation assay reagent (CTG) was added to the 384-well plate, and the plate was shaken to mix well. Then, the 384-well plate was incubated at 37 °C and 5% carbon dioxide in the dark for 30 minutes. The data were read using the Envision multifunctional microplate reader. […] According to the different drug concentrations and their corresponding inhibition rates, the GI50 curve was drawn using GraphPad 8.0 software. The data were analyzed, and the final IC50 value was obtained.
In addition, the compounds of the present disclosure also have selectivity for mutant HCT116 cells. […] The selectivity data of representative compounds are shown in Table 2: Table 2 Selectivity data of representative compounds

[3] = system: SDMA in HCT116^MTAP Deletion; test: In-Cell Western Assay of cellular SDMA; conditions: HCT116^MTAP Deletion cells, 96 hours; read-out: SDMA inhibition IC50 (µM) in HCT116^MTAP Deletion
Description: Compound dissolution: All the compounds were dissolved in dimethyl sulfoxide (DMSO) and then stored. The compounds were stored at -20°C for long term storage.
2.3 Cell culture and passaging
as §1, with “The cell culture medium (McCoy's 5A medium + 10% fetal bovine serum + 1% penicillin + streptomycin) was transferred to a 15 mL centrifuge tube and centrifuged at 1000 rpm for 5 min.” left out
2.4 In-Cell Western Assay of SDMA
When the confluency of cells in the culture dish reached about 90%, the cells were washed twice with PBS, and then digested with trypsin. 100 µl of the cells was inoculated into each well of a 96-well plate (800 cells/well). The plate was incubated overnight in a 37 °C and 5% CO2 incubator. 50 µL of 3x final concentration of a compound was added to the cell culture plate. Each compound was subjected to a 3-fold dilution, resulting in 10 concentration gradients, in duplicate, and the final concentration of DMSO was 0.5%. The plate was incubated in a 37 °C and 5% CO2 incubator for 96 hours.
150µL of 8% paraformaldehyde was added to each well, and the plate was incubated at room temperature for 15 minutes. The supernatant was discarded. The plate was washed with PBS, and 200µL of freshly prepared 1x Permeabilization buffer was added to each well. The plate was incubated at room temperature for 30 minutes. The supernatant was discarded. 200µL of 1x Blocking buffer was added to each well, and the plate was incubated at room temperature for 2 hours. The supernatant was discarded. 50µL of primary antibody (CST, 1x Incubation buffer 1:500 dilution) was added to each well, and the plate was incubated at 4°C overnight. The supernatant was discarded. 250µL of 1x Washing buffer was added to each well, and the plate was washed three times. 50µL of secondary antibody (IRDye 800CW Goat anti-Rabbit IgG and CellTag 700 dye, 1:800 and 1:500 diluted in Incubation buffer) was added to each well, and the plate was incubated at room temperature for 1 hour. The supernatant was discarded. The plate was washed with 1x Washing buffer. Signals were detected using Licor Odyssey CLX. […] According to the different drug concentrations and their corresponding inhibition rates, the IC50 curve was drawn using GraphPad 8.0 software. The data were analyzed, and the final IC50 value was obtained. […] Table 3 Inhibitory activity on cellular SDMA

[4] = 240 h, HCT116^MTAP Deletion cells, 10 days incubation, CTG readout, read-out: HCT116^MTAP Deletion GI50
[5] = HCT116^MTAP Deletion cells, 10 days incubation, CTG readout, read-out: HCT116^MTAP Deletion GI50

Row | GI50 [1, 4] [nM] | Selectivity multiple of HCT116^MTAP WT GI50/ HCT116^MTAP Deletion GI50 [2] | SMILES | also measured
1 | < 10 | 224 | CN(C(=O)C(=O)Nc1cnc(N)c2c1cnn2C)C1COCc2cc(-c3cccnc3)ccc21 (stereo not shown) [Example 95] | –
2 | 10 to 100 | 337 | CN(C(=O)C(=O)Nc1cnc(N)c2c1cnn2C)C1COc2cc(-c3cnc(C(F)(F)F)s3)ccc21 (stereo not shown) [Example 164] | –
3 | 10 to 100 | 144 | CN(C(=O)C(=O)Nc1cnc(N)c2c1cnn2C)C1COCc2cc(C3CC3)ccc21 (stereo not shown) [Example 104] | –
4 | – | 169 | CN(C(=O)C(=O)Nc1cnc(N)c2c1cnn2C)C1COc2cc(-c3ccnn3C)ccc21 (stereo not shown) [Example 161] | GI50 [1, 5]: < 10 nM
5 | – | – | CN(C(=O)C(=O)Nc1cnc(N)c2c1cnn2C)C1COCc2nc(C(F)(F)F)ccc21 (single isomer, unassigned) [Example 152-P2] | GI50 [1, 5]: < 10 nM; IC50 [3]: 0.01 to 0.1 µM
6 | < 10 | 193 | CN(C(=O)C(=O)Nc1cnc(N)c2c1cnn2C)C1COCc2cc(C3=CCC(F)(F)CC3)ccc21 (stereo not shown) [Example 157] | –
7 | < 10 | 106 | Cn1ncc2c(NC(=O)C(=O)N(C3CC3)C3COCc4cc(C(F)(F)F)ccc43)cnc(N)c21 (stereo not shown) [Example 98] | –
8 | < 10 | 146 | CC(C)C(C)N(Cc1ccc(C(F)(F)F)cn1)C(=O)C(=O)Nc1cnc(N)c2c1cnn2C (stereo not shown) [Example 110-P1] | –
9 | < 10 | 221 | Cc1ccc(-c2ccc3c(c2)COCC3N(C)C(=O)C(=O)Nc2cnc(N)c3c2cnn3C)cn1 (stereo not shown) [Example 184] | –
10 | – | 210 | CN(C(=O)C(=O)Nc1cnc(N)c2c1cnn2C)C1COc2cc(Cl)c(Cl)cc21 (stereo not shown) [Example 186-P1] | –
11 | < 10 | 354 | CN(C(=O)C(=O)Nc1cnc(N)c2c1cnn2C)C1COCc2cc(C#N)ccc21 (stereo not shown) [Example 111] | –
12 | < 10 | 128 | Cc1ncccc1-c1ccc2c(c1)COCC2N(C)C(=O)C(=O)Nc1cnc(N)c2c1cnn2C (stereo not shown) [Example 201] | –
13 | < 10 | 144 | CN(C(=O)C(=O)Nc1cnc(N)c2c1cnn2C)C1COCc2cc(Br)ccc21 (stereo not shown) [Example 94] | –
14 | – | 59 | CC1OCC(N(C)C(=O)C(=O)Nc2cnc(N)c3c2cnn3C)c2ccc(C(F)(F)F)cc21 (single isomer, unassigned) [Example 187-P2] | –
15 | – | 252 | CN(C(=O)C(=O)Nc1cnc(N)c2c1cnn2C)C1COc2cc(-c3ccnn3C)ccc21 (stereo not shown) [Example 192-P1] | IC50 [3]: < 0.01 µM
16 | – | – | CN(C(=O)C(=O)Nc1cnc(N)c2c1cnn2C)C1COCc2cc(-c3ccnn3C)ccc21 (stereo not shown) [Example 156-P1] | IC50 [3]: < 0.01 µM
17 | – | 160 | CN(C(=O)C(=O)Nc1cnc(N)c2c1cnn2C)C1COc2cc(C(F)(F)F)ccc21 (stereo not shown) [Example 89] | GI50 [1, 5]: < 10 nM

Row | GI50 [1, 4] [nM] | Selectivity multiple of HCT116^MTAP WT GI50/ HCT116^MTAP Deletion GI50 [2] | SMILES | also measured
18 | < 10 | 125 | CCC(C)N(Cc1ccc(OC(F)(F)F)cn1)C(=O)C(=O)Nc1cnc(N)c2c1cnn2C (stereo not shown) [Example 113] | –
19 | < 10 | 61 | CN(C(=O)C(=O)Nc1cnc(N)c2c1cnn2C)C1COCc2cc(C(F)(F)F)c(F)cc21 (stereo not shown) [Example 167] | –
20 | 10 to 100 | 244 | CN(C(=O)C(=O)Nc1cnc(N)c2c1cnn2C)C1COCc2cc(-c3ccn(C)n3)ccc21 (stereo not shown) [Example 93] | –
21 | < 10 | 119 | CCC(C)N(Cc1ccc(-c2cnn(C)c2)cn1)C(=O)C(=O)Nc1cnc(N)c2c1cnn2C (stereo not shown) [Example 90] | –
22 | – | 215 | CN(C(=O)C(=O)Nc1cnc(N)c2c1cnn2C)C1COCc2cc(-c3cnn(C)c3)ccc21 (stereo not shown) [Example 124-P1] | GI50 [1, 5]: < 10 nM
23 | 10 to 100 | 295 | Cc1cc(-c2ccc3c(c2)OCC3N(C)C(=O)C(=O)Nc2cnc(N)c3c2cnn3C)on1 (stereo not shown) [Example 165] | –
24 | – | 179 | CN(C(=O)C(=O)Nc1cnc(N)c2c1cnn2C)C1COCc2cc(C3=CCOCC3)ccc21 (stereo not shown) [Example 100] | GI50 [1, 5]: < 10 nM
25 | – | – | C[C@H](c1ncccn1)N(Cc1ccc(C(F)(F)F)cn1)C(=O)C(=O)Nc1cnc(N)c2cnn(C)c12 [Example 34] | GI50 [1, 5]: 100 to 1000 nM; GI50 ([1]; read-out: GI50 for HCT116^MTAP Deletion): ≤ 100 nM; selectivity for mutant HCT116 cells ([2]; HCT116 GI50 versus HCT116^MTAP Deletion GI50, text b891): more than 300 times; GI50 ([2]; HCT116 cells): 1000 to 10000 nM
26 | < 10 | 226 | CN(C(=O)C(=O)Nc1cnc(N)c2c1cnn2C)C1COCc2c1ccc(C(F)(F)F)c2F (stereo not shown) [Example 195] | –
27 | < 10 | 429 | CN(C(=O)C(=O)Nc1cnc(N)c2c1cnn2C)C1COCc2cc(-c3cnc(C4CC4)s3)ccc21 (stereo not shown) [Example 194] | –
28 | – | 285 | CN(C(=O)C(=O)Nc1cnc(N)c2c1cnn2C)C1COCc2cc(-c3cnn(C)c3)ccc21 (stereo not shown) [Example 99] | GI50 [1, 5]: < 10 nM
29 | < 10 | 116 | Cc1nn(C)c(C)c1-c1ccc2c(c1)COCC2N(C)C(=O)C(=O)Nc1cnc(N)c2c1cnn2C (stereo not shown) [Example 178] | –
30 | < 10 | 161 | CCC(C)N(Cc1ccc(-c2ccn(C)n2)cn1)C(=O)C(=O)Nc1cnc(N)c2c1cnn2C (stereo not shown) [Example 88] | –
31 | – | – | C[C@H](c1ncccn1)N(Cc1ccc(C(F)(F)F)cn1)C(=O)C(=O)Nc1cnc(N)c2c1COC2 [Example 2] | GI50 [1, 5]: 10 to 100 nM; IC50 [3]: < 0.01 µM
32 | – | 78 | CC1OCC(N(C)C(=O)C(=O)Nc2cnc(N)c3c2cnn3C)c2ccc(C(F)(F)F)cc21 (single isomer, unassigned) [Example 187-P1] | –
33 | < 10 | 240 | CN(C(=O)C(=O)Nc1cnc(N)c2c1cnn2C)C1COCc2cc(-c3ccc(C(F)(F)F)nc3)ccc21 (stereo not shown) [Example 185] | –
